These results are taken from ChEMBL document CHEMBL2069304, “Indole alkaloids from two cultured cyanobacteria, Westiellopsis sp. and Fischerella muscicola” (Bioorg Med Chem, 2012).

Values after ≈ are worked out from the molar mass of the structure shown. Active and inactive are the calls of the source. The rule behind the calls is not given here. A value given as a limit tells only on which side of the number the result lay.

For one assay, the system named is Staphylococcus aureus. Put plainly: Antimicrobial activity against Staphylococcus aureus by broth microdilution assay. It is filed as functional. Background: Dilution methods test growth across graded concentrations, often in twofold steps.
For another assay, the system named is Candida albicans. Description: Antimicrobial activity against Candida albicans by broth microdilution assay. It counts as functional.
For a further assay, the system named is Acinetobacter baumannii. Put plainly: Antimicrobial activity against Acinetobacter baumannii by broth microdilution assay. It is filed as functional.
For the next assay, the system named is IMR-90. Put plainly: Cytotoxicity against human IMR90 cells incubated for 3 days by SRB assay. It is filed as cell-based. The settings on record: IMR-90, 72 h.
The subject of a further assay is NCI-H460. Put plainly: Cytotoxicity against human NCI-H460 cells incubated for 3 days by SRB assay. It is filed as functional, cell-based. The settings on record: NCI-H460, 72 h. A general note: In SRB staining, fixed cells bind dye roughly in proportion to their protein.
The test system of a further assay is MCF7. Description: Cytotoxicity against human MCF7 cells incubated for 3 days by SRB assay. It is filed as functional, cell-based. The settings on record: MCF7, 72 h.
In a further assay the test system is Escherichia coli. Put plainly: Antimicrobial activity against Escherichia coli by broth microdilution assay. It is filed as functional.
Assay [1] has as its system Mycobacterium tuberculosis. Put plainly: microbe, parasite or virus in culture. The settings on record: H37Rv.
Description: Antimicrobial activity against Mycobacterium tuberculosis H37Rv by microplate Alamar blue assay
A further assay relates to SF-268. Description: Cytotoxicity against human SF268 cells incubated for 3 days by SRB assay. It is filed as functional, cell-based. The settings on record: SF-268, 72 h.
In another assay the test system is HT-29. Description: Cytotoxicity against human HT-29 cells by CellTiter 96 Aqueous One solution cell proliferation assay. It is filed as functional, cell-based.
For assay [2], the system named is Mycolicibacterium smegmatis. Description: Antimicrobial activity against Mycobacterium smegmatis by broth microdilution assay. It counts as functional.
The next assay deals with Vero. Description: Cytotoxicity against african green monkey Vero cells by CellTiter 96 aqueous nonradioactive cell proliferation assay. It is filed as cell-based. The settings on record: Chlorocebus sabaeus.
A further assay is filed under the species Homo sapiens. Description: Inhibition of 20S proteasome at 25 ug/ml.
The mark [3] stands for this setting: Homo sapiens, HT-29, read-out: IC50.

By IC50 is commonly meant the midpoint of a concentration-inhibition curve.

For the molecule `[C-]#[N+][C@H]1C(=C)[C@@H](C=C)C[C@@H]2[C@@H]1c1c[nH]c3cccc(c13)C2(C)C` (relative stereo), the MIC is 9.1 µM (≈ 2.75 µg/mL) against Staphylococcus aureus; 2.5 µM (≈ 0.756 µg/mL) against Candida albicans; > 100 µM with Acinetobacter baumannii; > 100 µM in the assay with Escherichia coli; 2.5 µM (≈ 0.756 µg/mL) in assay [1]; 78.8 µM (≈ 23.8 µg/mL) in assay [2]. Also, the half-maximal inhibitory concentration (IC50) with IMR-90 stood at 113 µM; in the assay on NCI-H460 it was 23 µM; in the assay with MCF7, 35.4 µM; with SF-268, 23.5 µM; in the assay on HT-29 (setting [3]), 24.8 µM.

Take `[C-]#[N+]C1=C2c3c[nH]c4cccc(c34)C(C)(C)[C@H]2CC[C@]1(C)C=C` (relative stereo): the MIC (with Staphylococcus aureus; against Candida albicans; in the assay with Acinetobacter baumannii; in the assay with Escherichia coli; in assay [1]; in assay [2]) was > 100 µM in each case. Moreover, in the assay with Vero, the half-maximal inhibitory concentration (IC50) is > 100 µM.

On to `C=C[C@]1(C)CC2C(=O)c3c(NC=O)cccc3C(C)(C)[C@H]2C[C@H]1O` (relative stereo), for which the MIC (against Staphylococcus aureus; against Candida albicans; against Acinetobacter baumannii; in the assay with Escherichia coli; in assay [1]; in assay [2]) was > 100 µM throughout. In addition, the half-maximal inhibitory concentration (IC50) was > 100 µM in the assay with IMR-90; > 100 µM with NCI-H460; > 100 µM in the assay on MCF7; > 100 µM with Vero; > 100 µM with SF-268; “Not Active” in the assay on HT-29 (ht-29).

Molecule `C[C@@H]1[C@H](O)[C@@H](C)/C=C/C=C/C=C/C=C/C=C/C=C/C=C/[C@H](O[C@@H]2O[C@H](C)[C@@H](O)[C@H](N)[C@@H]2O)C[C@@H]2O[C@](O)(C[C@@H](O)C[C@@H](O)[C@H](O)CC[C@@H](O)C[C@@H](O)CC(=O)O[C@H]1C)C[C@H](O)[C@H]2C(=O)O` [AMPHOTERICIN B] displayed an MIC in the assay with Candida albicans of 0.12 µM (≈ 0.111 µg/mL).

Molecule `CC1(C)S[C@@H]2[C@H](NC(=O)[C@H](N)c3ccccc3)C(=O)N2[C@H]1C(=O)O` [AMPICILLIN] registered an MIC in the assay on Staphylococcus aureus of 1.54 µM (≈ 0.538 µg/mL).

Take `[C-]#[N+][C@@H]1C2=C3C(=O)Nc4cccc(c43)C(C)(C)[C@H]2C[C@@H](Cl)[C@]1(C)C=C` [ANHYDROHAPALOXINDOLE A]: the MIC in the assay with Staphylococcus aureus is 27.3 µM (≈ 9.63 µg/mL); with Candida albicans, 1.9 µM (≈ 0.67 µg/mL); with Acinetobacter baumannii, > 100 µM; against Escherichia coli it was > 100 µM; in assay [1] it was 16.2 µM (≈ 5.72 µg/mL); in assay [2], > 100 µM. Besides, the IC50 with IMR-90 was 80.1 µM; in the assay with NCI-H460, 18.7 µM; with MCF7 it was 56.7 µM; with SF-268 it was 26 µM.

Take `CC[C@@]1(O)C(=O)OCc2c1cc1n(c2=O)Cc2cc3ccccc3nc2-1` [CAMPTOTHECIN]: the half-inhibitory concentration (IC50) in the assay on IMR-90 worked out at 0.43 µM; in the assay with NCI-H460 it was 0.002 µM; in the assay with MCF7, 0.08 µM; in the assay on SF-268, 0.07 µM.

For the molecule `C[C@H]1c2cccc(O)c2C(=O)C2=C(O)[C@]3(O)C(=O)C(C(N)=O)=C(O)[C@@H](N(C)C)[C@@H]3[C@@H](O)[C@@H]21` [DOXYCYCLINE], the MIC in the assay with Acinetobacter baumannii came to 0.35 µM (≈ 0.156 µg/mL).

Regarding `CCCCCC#CC#C/C=C/CCCC[C@H]1C[C@@H](C)C(=O)N1` [FISCHERELLIN B], the MIC is > 100 µM with Staphylococcus aureus; > 100 µM with Candida albicans; > 100 µM in the assay on Acinetobacter baumannii; > 100 µM in the assay on Escherichia coli; 23 µM (≈ 6.89 µg/mL) in assay [1]; > 100 µM in assay [2]. Further, in the assay on Vero, the half-maximal inhibitory concentration (IC50) was > 100 µM.

For `[C-]#[N+][C@@H]1[C@H]2c3c([nH]c4ccccc34)C(C)(C)[C@H]2C[C@@H](Cl)[C@@]1(C)C=C` [FISCHERINDOLE L], the MIC against Staphylococcus aureus was 6.4 µM (≈ 2.17 µg/mL); in the assay with Candida albicans it was 1.2 µM (≈ 0.407 µg/mL); against Acinetobacter baumannii, > 100 µM; against Escherichia coli, > 100 µM; in [1], 22 µM (≈ 7.46 µg/mL); in assay [2] it was 63 µM (≈ 21.3 µg/mL). Moreover, the IC50 in the assay on IMR-90 was 46.3 µM; in the assay on NCI-H460, 15.1 µM; in the assay with MCF7, 28.3 µM; with Vero, < 9.2 µM; with SF-268, 17.4 µM.

For the molecule `[C-]#[N+][C@@H]1[C@H]2c3c[nH]c4cccc(c34)C(C)(C)[C@H]2C[C@@H](Cl)[C@]1(C)C=C` [HAPALINDOLE A], the MIC is 3.9 µM (≈ 1.32 µg/mL) against Staphylococcus aureus; 1.2 µM (≈ 0.407 µg/mL) in the assay on Candida albicans; > 100 µM against Acinetobacter baumannii; 8 µM (≈ 2.71 µg/mL) in the assay with Escherichia coli; < 0.6 µM in assay [1]; 18.2 µM (≈ 6.17 µg/mL) in [2]. Besides, the IC50 in the assay on IMR-90 was 39.1 µM; with NCI-H460 it was 17 µM; in the assay with MCF7, 30.7 µM; with Vero, 25.6 µM; in the assay on SF-268, 16.3 µM.

For the molecule `[C-]#[N+][C@@H]1[C@H](c2c[nH]c3ccccc23)[C@@H](C(=C)C)CC[C@]1(C)C=C` [HAPALINDOLE C], in the assay filed under Homo sapiens, the inhibition result was “inactive”. The half-inhibitory concentration (IC50) was > 100 µM in the assay with IMR-90, 53.7 µM in the assay on NCI-H460, > 100 µM in the assay on MCF7 and 88.6 µM in the assay with SF-268.

As for `[C-]#[N+][C@@H]1[C@H]2c3c[nH]c4cccc(c34)C(C)(C)[C@@H]2CC[C@]1(C)C=C` [HAPALINDOLE H], the IC50 was found to be 31.9 µM in the assay with IMR-90, 8.5 µM in the assay with NCI-H460, 16.3 µM in the assay with MCF7 and 10.6 µM in the assay with SF-268.

For `[C-]#[N+]C1=C2c3c[nH]c4cccc(c34)C(C)(C)[C@H]2C[C@@H](Cl)[C@]1(C)C=C` [HAPALINDOLE I], the MIC against Staphylococcus aureus is > 100 µM; in the assay on Candida albicans, > 100 µM; in the assay with Acinetobacter baumannii, > 100 µM; against Escherichia coli, > 100 µM; in [1], 2 µM (≈ 0.674 µg/mL); in [2] it was > 100 µM. Further, the IC50 in the assay on IMR-90 is > 100 µM; in the assay with NCI-H460, 68.5 µM; in the assay with MCF7, > 100 µM; with Vero, > 100 µM; in the assay on SF-268, 93.1 µM; in the assay on HT-29 (ht-29), “Not Active”.

With `[C-]#[N+][C@@H]1[C@H]2c3c[nH]c4cccc(c34)C(C)(C)[C@H]2CC[C@]1(C)C=C` [HAPALINDOLE J], the MIC is 8.4 µM (≈ 2.56 µg/mL) in the assay on Staphylococcus aureus; 0.7 µM (≈ 0.213 µg/mL) in the assay with Candida albicans; > 100 µM with Acinetobacter baumannii; > 100 µM with Escherichia coli; 4.3 µM (≈ 1.31 µg/mL) in [1]; 39 µM (≈ 11.9 µg/mL) in assay [2]. For the same molecule, the IC50 in the assay on IMR-90 came to 39.1 µM; in the assay with NCI-H460, 12 µM; with MCF7 it was 43.7 µM; with SF-268 it was 16.9 µM; with HT-29 (setting [3]), 28.6 µM.

`[C-]#[N+][C@@H]1[C@@H]2c3c[nH]c4cccc(c34)C(C)(C)[C@H]2CC[C@]1(C)C=C` [HAPALINDOLE U]: the half-inhibitory concentration (IC50) in the assay on IMR-90 was > 100 µM; with NCI-H460, > 100 µM; with MCF7, > 100 µM; in the assay with SF-268, > 100 µM; with HT-29 (setting [3]) it was 52.6 µM.

Turning to `CO[C@H]1/C=C/O[C@@]2(C)Oc3c(C)c(O)c4c(O)c(c(/C=N/N5CCN(C)CC5)c(O)c4c3C2=O)NC(=O)/C(C)=C\C=C\[C@H](C)[C@H](O)[C@@H](C)[C@@H](O)[C@@H](C)[C@H](OC(C)=O)[C@@H]1C` [RIFAMPIN], the MIC in assay [1] was found to be 0.24 µM (≈ 0.198 µg/mL).

In [2], `CN[C@@H]1[C@H](O[C@H]2[C@H](O[C@H]3[C@H](O)[C@@H](O)[C@H](N=C(N)N)[C@@H](O)[C@@H]3N=C(N)N)O[C@@H](C)[C@]2(O)C=O)O[C@@H](CO)[C@H](O)[C@H]1O` [STREPTOMYCIN] came in with an MIC of 0.41 µM (≈ 0.238 µg/mL).

The molecule GENTAMICIN had an MIC in the assay with Escherichia coli of 2.3 µM.
